This is an account of results in ChEMBL document CHEMBL2218064, “Structure-activity relationship data for chemical series of antagonists of the P2X7 receptor (Supplementary Bioactivity Data for publication CHEMBL1157114)”.

The term IC50 denotes the concentration that inhibits the measured activity by half.

Molecules are shown by their SMILES.

In this experiment the target is T1, P2X purinoceptor 7 (Homo sapiens, UniProt Q99572).
T1 sequence (Q99572 whole entry): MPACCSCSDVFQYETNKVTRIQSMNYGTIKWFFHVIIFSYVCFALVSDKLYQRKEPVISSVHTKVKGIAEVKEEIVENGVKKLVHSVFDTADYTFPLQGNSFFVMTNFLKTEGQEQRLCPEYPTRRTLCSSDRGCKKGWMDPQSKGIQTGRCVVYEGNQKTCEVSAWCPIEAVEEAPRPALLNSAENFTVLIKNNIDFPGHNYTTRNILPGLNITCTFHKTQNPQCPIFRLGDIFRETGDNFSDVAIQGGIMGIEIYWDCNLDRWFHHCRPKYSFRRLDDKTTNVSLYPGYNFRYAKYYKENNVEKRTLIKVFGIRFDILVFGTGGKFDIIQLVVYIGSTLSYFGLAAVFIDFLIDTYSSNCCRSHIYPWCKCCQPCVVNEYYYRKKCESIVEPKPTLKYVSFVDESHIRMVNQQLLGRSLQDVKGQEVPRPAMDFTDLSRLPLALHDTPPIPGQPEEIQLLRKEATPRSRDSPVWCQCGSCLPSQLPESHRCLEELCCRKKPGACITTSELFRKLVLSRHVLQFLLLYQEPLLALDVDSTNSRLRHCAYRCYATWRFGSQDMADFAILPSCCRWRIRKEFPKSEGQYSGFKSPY
As to the kind of experiment: SUPPLEMENTARY: Inhibition of human P2X7 receptor assessed as inhibition of ethidium bromide accumulation. Same assay as CHEMBL1103860.
Take `O=C(Cc1cnn(-c2ccc(F)cc2)c1Br)NCc1ccc(F)cc1Cl`: the IC50 is 398 nM.

As for `Cc1cccc(N2CCN(Cc3ccc(F)cc3Cl)C(=O)C2=O)c1C`, the IC50 was 5.01 nM.

As to `CCN1C(=O)CC[C@H]1C(=O)NCc1c(C)cccc1Cl`, the IC50 is 100 nM.

For the compound `CCN1C(=O)C(C)(C)C[C@H]1C(=O)NCc1ccc(F)cc1Cl`, the IC50 is 50.1 nM.

As for `O=C1CN(C(=O)c2cccc(Cl)c2Cl)CCN1Cc1ccc(F)cc1Cl`, the half-maximal inhibitory concentration (IC50) is 158 nM.

As to `O=C(c1ccccc1Cl)N1CCn2c(nnc2-c2cscn2)C1`, the IC50 was 10 nM.

With `Cc1c(CNC(=O)[C@@H]2CNC(=O)N2C)cccc1C(F)(F)F`, the IC50 is 2 nM.

In the case of `CN1C(=O)c2ccccc2C1C(=O)NCc1ccc(F)cc1Cl` (centres undefined), the IC50 was 316 nM.

For `Cc1c(CNC(=O)[C@@H]2CCC(=O)N2C)cccc1C(F)(F)F`, the IC50 was 3.16 nM.

As for `Cc1c(Cl)cccc1CNC(=O)[C@@H]1CNC(=O)N1C`, the IC50 was 20 nM.

Turning to `Cc1c(Cl)cccc1CNC(=O)[C@@H]1CCC(=O)N1C1CCC1`, the IC50 was 15.8 nM.

With `CCOc1cccc(-n2cc(CC(=O)NCc3ccc(F)cc3Cl)cn2)n1`, the IC50 is 1260 nM.

`CN1[C@H](C(=O)NCc2ccc(Cl)cc2Cl)CCS1(=O)=O`: the IC50 is 31.6 nM.

For the compound `CN1C(=O)CC(C)(C)C1C(=O)NCc1cccc(C(F)(F)F)c1Cl` (centres undefined), the IC50 is 100 nM.

Take `Cc1cn2c(n1)CN(C(=O)c1cccc(Cl)c1Cl)CC2`: the IC50 was 316 nM.

In the case of `CCN1C(=O)CC[C@H]1C(=O)NCc1ccccc1Br`, the IC50 is 251 nM.

In the case of `O=C(c1cccc(Cl)c1Cl)N1CCn2c(nnc2-c2cccnn2)C1`, the IC50 was 31.6 nM.

Regarding `CN1C(=O)CC[C@H]1C(=O)NCc1ccc(Cl)cc1Cl`, the IC50 was 12.6 nM.

Consider `COc1ccc(I)cc1N1CCN(C(=O)c2cccc(C(F)(F)F)c2Cl)CC1=O`, for which the IC50 was 12.6 nM.

`CN1C(=O)N(c2ncc(Cl)cn2)C[C@H]1C(=O)NCc1ccc(Cl)cc1Cl`: the IC50 was 6.31 nM.

As to `CCN1C(=O)[C@H](Cc2ccccc2)C[C@H]1C(=O)NCc1ccc(F)cc1Cl`, the IC50 is 100 nM.

For the compound `Cc1nn(-c2ccc(Cl)cn2)c(C)c1CC(=O)NCc1ccc(F)cc1Cl`, the IC50 was 251 nM.

In the case of `CN1C(=O)N(c2ncccc2F)C[C@H]1C(=O)NCc1ccc(Cl)cc1Cl`, the IC50 is 2 nM.

In the case of `CCN1C(=O)CC[C@H]1C(=O)NCc1ccc(Cl)cc1C`, the IC50 is 25.1 nM.

Turning to `CCCc1nnc2n1CCN(C(=O)c1cccc(C(F)(F)F)c1Cl)C2`, the IC50 was 25.1 nM.

Turning to `O=C(c1cccc(C(F)(F)F)c1Cl)N1CCn2c(nnc2N2CCCCC2)C1`, the IC50 was 100 nM.

Turning to `Cc1ccc(-n2nc(C)c(CC(=O)NCc3ccc(F)cc3Cl)c2C)cn1`, the IC50 was 251 nM.

Consider `O=C(c1ccc(Cl)c(F)c1Cl)N1CCn2c(nnc2-c2ccncn2)C1`, for which the IC50 is 20 nM.

For `Cc1cc(F)ccc1C(=O)N1CCn2c(nnc2-c2cnccn2)C1`, the IC50 is 15.8 nM.

Turning to `Cc1ccc(C)c(N2CCN(Cc3ccc(F)cc3Cl)C(=O)C2=O)c1`, the concentration for half-maximal inhibition (IC50) is 7.94 nM.

For `CCN1C(=O)CC[C@H]1C(=O)NCc1ccc(Br)cc1F`, the IC50 is 39.8 nM.

`CN1C(=O)N(c2nccc(C(F)(F)F)n2)C[C@H]1C(=O)NCc1ccc(F)cc1Cl`: the IC50 is 100 nM.

Consider `Cc1nn(-c2ccccc2)c(C)c1CC(=O)NCc1cc(Cl)ccc1F`, for which the IC50 is 631 nM.

As for `O=C(c1cccc(C(F)(F)F)c1Cl)N1CCn2c(nnc2-c2ccncc2)C1`, the IC50 is 25.1 nM.

With `O=C(NCc1ccc(Cl)cc1Cl)[C@@H]1CCC(=O)N1C1CCC1`, the IC50 was 5.01 nM.

On to `CC(C)c1ccccc1N1CCN(Cc2ccc(F)cc2Cl)C(=O)C1=O`, for which the IC50 is 7.94 nM.

With `CC(C)c1ccccc1N1CCN(C(=O)c2cccc(C(F)(F)F)c2Cl)CC1=O`, the IC50 was 7.94 nM.

For `CC(C)N1C(=O)CC[C@H]1C(=O)NCc1ccc(F)c(Cl)c1Cl`, the IC50 is 5.01 nM.

For `Cn1nccc1CC(=O)NCc1ccc(F)cc1Cl`, the IC50 was 251 nM.

`Cc1c(CNC(=O)[C@@H]2CCC(=O)N2C2CCC2)cccc1C(F)(F)F`: the IC50 is 3.16 nM.

On to `Cc1cc(Cl)cc(Cl)c1CNC(=O)[C@@H]1CN(C)C(=O)N1C`, for which the IC50 is 0.794 nM.

Regarding `O=C(c1cccc(F)c1F)N1CCN(c2ccc(F)cc2Cl)C(=O)C1`, the IC50 is 316 nM.

`O=C(c1ccc(F)cc1Cl)N1CCn2c(nnc2-c2cnccn2)C1`: the IC50 is 5.01 nM.

For `C[C@@H]1CN(Cc2ccc(Cl)cc2Cl)C(=O)C(=O)N1c1ccccc1`, the IC50 is 25.1 nM.

For `O=C(c1cccc(C(F)(F)F)c1Cl)N1CCn2c(-c3ccccc3)cnc2C1`, the IC50 was 6.31 nM.

On to `CN1C(=O)N(CCN2CCOCC2)CC1C(=O)NCc1cccc(C(F)(F)F)c1Cl` (centres undefined), for which the IC50 is 25.1 nM.

Consider `CCN1[C@H](C(=O)NCc2ccc(F)cc2C(F)(F)F)CCS1(=O)=O`, for which the IC50 is 126 nM.

In the case of `Cc1ccc(N2CCOCC2)cc1N1CCN(C(=O)c2cccc(Cl)c2Cl)CC1=O`, the IC50 is 15.8 nM.

Take `O=C(c1ccc(Cl)c(Cl)c1)N1CCn2c(nnc2-c2cnccn2)C1`: the IC50 was 31.6 nM.

`CCN1C(=O)CC[C@H]1C(=O)NCc1ccc(Cl)c(C(F)(F)F)c1`: the IC50 is 79.4 nM.

Regarding `O=C(NCc1ccc(F)cc1Cl)C1CCC(=O)N1C1CC1` (centres undefined), the IC50 is 20 nM.

As for `Cc1nn(C2CCCC2)c(C)c1CC(=O)NCc1ccc(F)cc1Cl`, the IC50 is 501 nM.

For `O=C(c1cccc(Cl)c1Cl)N1CCn2c(nnc2-c2ccc(F)cc2)C1`, the IC50 was 3.16 nM.

On to `CN1C(=O)CC[C@@H]1C(=O)NCc1cccc(C(F)(F)F)c1Cl`, for which the IC50 was 15.8 nM.

Regarding `CCN(CC)c1ccc(N2CCN(Cc3ccc(F)cc3Cl)C(=O)C2=O)c(C)c1`, the IC50 is 12.6 nM.

On to `CN(C)c1nnc2n1CCN(C(=O)c1cccc(C(F)(F)F)c1Cl)C2`, for which the IC50 was 20 nM.

As for `Cc1nn(-c2ccc(C(=O)NCc3ccccn3)cc2)c(C)c1CC(=O)NCc1ccc(F)cc1Cl`, the IC50 was 15.8 nM.

For the compound `O=C(c1ccc(F)c(Cl)c1Cl)N1CCn2c(nnc2-c2ccc(F)cn2)C1`, the IC50 was 1.58 nM.

For `Cc1ccccc1N1CCN(C(=O)c2cccc(C(F)(F)F)c2Cl)CC1=O`, the IC50 is 10 nM.

`CN1C[C@@H](C(=O)NCc2ccc(F)cc2Cl)NC1=O`: the IC50 is 794 nM.

On to `Cc1nn(CC(C)(C)O)c(C)c1CC(=O)NCc1ccc(F)c(F)c1F`, for which the IC50 is 794 nM.

`Cc1ccc(N2CCOCC2)cc1N1CCN(Cc2ccc(F)cc2Cl)C(=O)C1=O`: the IC50 was 31.6 nM.

Turning to `O=C1CN(C(=O)c2cccc(C(F)(F)F)c2Cl)CCN1CC1CCCCC1`, the IC50 is 79.4 nM.

On to `O=C(c1cccc(C(F)(F)F)c1Cl)N1CCn2c(nnc2-c2ccc(F)cc2F)C1`, for which the IC50 was 15.8 nM.

Consider `O=C(c1cccc(C(F)(F)F)c1Cl)N1CCn2c(-c3ccc(Cl)cc3)cnc2C1`, for which the IC50 is 251 nM.

With `O=C(c1ccc(F)cc1Cl)N1CCn2c(nnc2-c2ccccc2)C1`, the IC50 is 12.6 nM.

With `COc1cccc(OC)c1N1CCN(Cc2ccc(F)cc2Cl)C(=O)C1=O`, the IC50 was 20 nM.

As to `O=C(Cc1cnn(CCNC2CCOCC2)c1C(F)(F)F)NCc1ccc(F)cc1Cl`, the IC50 was 1260 nM.

Take `CN1C(=O)N(c2cccnc2)CC1C(=O)NCc1cccc(C(F)(F)F)c1Cl` (centres undefined): the IC50 is 12.6 nM.

Take `Cc1nn(C(C)C)c(C)c1CC(=O)NCc1ccc(F)cc1Cl`: the IC50 was 631 nM.

Turning to `CC(C)(C)c1cn2c(n1)CN(C(=O)c1cccc(C(F)(F)F)c1Cl)CC2`, the IC50 is 631 nM.

As to `O=C(NCc1ccc(Cl)cc1Cl)C1CCC(=O)N1C1CC1` (centres undefined), the IC50 was 3.16 nM.

In the case of `O=C1C(=O)N(c2cccc(N3CCOCC3)c2)CCN1Cc1ccc(F)cc1Cl`, the IC50 was 251 nM.

`CN1C(=O)CC[C@H]1C(=O)NCc1ccc(F)c(Cl)c1Cl`: the IC50 is 12.6 nM.

Regarding `CCN1[C@H](C(=O)NCc2ccc(F)c(F)c2F)CCCS1(=O)=O`, the IC50 is 631 nM.

`CN1CCN(C(=O)c2ccc(Cl)cc2Cl)CC1=O`: the 50% inhibitory concentration (IC50) was 251 nM.

In the case of `O=C(c1ccccc1Cl)N1CCn2c(nnc2-c2ccc(F)cn2)C1`, the IC50 is 39.8 nM.

As for `Cc1cc(F)cc(C)c1N1CCN(Cc2ccc(Cl)cc2Cl)C(=O)C1=O`, the IC50 was 12.6 nM.

For the compound `CCN1C(=O)[C@@H](Cc2ccccc2)C[C@H]1C(=O)NCc1ccc(F)cc1Cl`, the IC50 is 126 nM.

For `O=C1CN(C(=O)c2cccc(C(F)(F)F)c2Cl)CCN1Cc1ccccn1`, the IC50 is 158 nM.

Take `CN1C(=O)N(C2CCNCC2)CC1C(=O)NCc1cccc(C(F)(F)F)c1Cl` (centres undefined): the IC50 is 31.6 nM.

As for `CN1C[C@@H](C(=O)NCc2ccc(Cl)c(C(F)(F)F)c2)N(C)C1=O`, the IC50 was 50.1 nM.

As for `CN1C[C@@H](C(=O)NCc2c(Cl)cc(Cl)cc2Cl)N(C)C1=O`, the IC50 is 0.794 nM.

As to `O=C1CN(C(=O)c2cccc(C(F)(F)F)c2Cl)CCN1CC(F)(F)F`, the IC50 was 200 nM.

Regarding `Cc1cncc(-n2nc(C)c(CC(=O)NCc3ccc(F)cc3Cl)c2C)c1`, the IC50 was 316 nM.

`O=C(c1cccc(C(F)(F)F)c1Cl)N1CCn2c(-c3cccc(C(F)(F)F)c3Cl)cnc2C1`: the IC50 is 631 nM.

As to `Cc1ncccc1-n1nc(C)c(CC(=O)NCc2ccc(F)cc2Cl)c1C`, the IC50 was 79.4 nM.

Regarding `Cc1cc(-n2nc(C)c(CC(=O)NCc3ccc(F)cc3Cl)c2C)ccn1`, the IC50 is 316 nM.

For `CCN1C(=O)NC[C@H]1C(=O)NCc1ccc(Cl)cc1Cl`, the IC50 is 12.6 nM.
